Data reported in US10736912B2, “Compositions containing PUFA and/or uridine and methods of use thereof” (MASSACHUSETTS INSTITUE OF TECHNOLOGY, priority 2005, dated 2020).

Tests used:
[1] = tested on: brain phospholipid levels; experiment: Brain phospholipid levels in gerbils given UMP diet and/or PUFA by gavage; format: in vivo, gerbil; settings: for Brain phospholipid levels: Table 6
Procedure: (§1) Cells were homogenized in 100 volumes of ice-cold deionized water using a tissue degrader (Polytron PT 10-35, Kinematica AG, Switzerland); 1 ml of aliquots were then mixed with 3 ml of chloroform+methanol mixture (2:1 v/v) and vortexed vigorously for 30 seconds. After cooling for 1 h on ice, the mixture was mixed sequentially with 3 ml of chloroform+methanol mixture (2:1 v/v) and 1 ml of ice-cold deionized water. The mixture was vortexed vigorously and allowed to stand overnight in the cold room (18 h). The organic (lower) and aqueous (upper) phases of the mixtures were separated by centrifugation (10 min at 4° C.; 1000 g). An aliquot (2 ml) of the upper phase was used for determination of CDP-Choline (see below), and 0.1-0.4 ml aliquots of the lower phase were dried under vacuum for phospholipid analysis. Residues of 0.1 ml aliquots of the lower phase were assayed for total phospholipid content by measuring phosphorus. Residues of 0.4 ml aliquots of the lower phase were reconstituted in 40 μl methanol and subjected to thin-layer chromatography using silica G plates (Adsorbosil Plus-1®, Alltech), and a system consisting of chloroform/ethanol/triethylamine/water (30:34:30:8) as the mobile phase. Phospholipid standards were used to identify the corresponding bands under UV light after the plates were sprayed with 0.1% diphenylhexatriene in petroleum ether. Bands for individual phospholipid classes (PC, PE, SM, PS and PI) were scraped off the plates and extracted into 1 ml of methanol; dried under vacuum; and assayed for phosphorus content. Total phosphorus was determined by comparison with standard curves by using KH2PO4 run with each assay. To each sample was added 0.5 ml of 4.5% HclO4/27% H2SO4 and tubes were heated at 180° C. for 3 h. After cooling to room temperature, 5 ml of the color reagent (a 10:1 dilution of solutions containing 2.5 mg/ml ammonium molybdate, 8.2 mg/ml sodium acetate and 100 mg/ml ascorbic acid respectively) was added and the tubes were incubated for 2 h, 37° C. Absorbance was measured spectrophotometrically at 820 nm. Phospholipid mass was determined by multiplying the phosphorus content by 25.
Control standard diet (Table 4) consisted of Teklad Global 16% protein rodent diet (Harlan Teklad, Madison, Wis.), which contained 0.1% choline chloride (CC), corresponding to a daily dose of 50 mg/kg/day. UMP was provided as 0.5% UMP·2Na^+ weight/weight, added to the control diet, also prepared by Harlan Teklad, corresponding to 240 mg/kg/day UMP. DHA was administered as 300 mg/kg/day in 200 microliter (mcL)/day 5% Arabic Gum solution, while groups not receiving DHA were administered vehicle (5% Arabic Gum) alone. DHA was provided by Nu-Chek Prep (Elysian, Minn.) and UMP by Numico (Wagenigen, NL).
Gerbils were anesthetized with ketamine and xylazine (80 and 10 mg/kg bwt, i.p.) and sacrificed by immersing the head into liquid nitrogen for 2 min, followed by decapitation. Brains were immediately and quickly (30 seconds) removed using a bone rongeur and stored at −80° C.
Frozen brain hemispheres were weighed and homogenized in 100 volumes of ice-cold deionized water using a tissue degrader (Polytron PT 10-35, Kinematica AG, Switzerland), then analyzed as described in Example 1.
Protein in whole brain homogenate sample was measured for using bicinchoninic acid reagent (Perkin Elmer, Norwalk, Conn., USA). DNA was measured by measuring 460 nm emission of samples on a fluorometer in the presence of bisbenzimidizole, a fluorescent dye known as Hoechst H 33258 (American Hoechst Corporation), which has an excitation maximum at 356 nm and an emission maximum of 458 when bound to DNA.
Male gerbils weighing 80-100 g were divided into 4 groups of 8 gerbils and administered the supplements depicted in Table 1: […]

[2] = tested on: PC-12 cells; experiment: 14C-choline incorporation into phospholipids in PC-12 cells; format: cell-based; settings: 5 μM fatty acid, 18 hr pre-incubation, then 14C-choline 2.5 hr; FIG. 1
Procedure: PC-12 cells were maintained in Dulbecco's modified Eagle's medium (DMEM)+10% fetal bovine serum (FBS). For experiments, cells were grown in quintuplicate collagen-coated 35 millimeter (mm) dishes. Cells were incubated for 18 hours (hr) in serum-free DMEM containing 28 μM choline+/−5 micromolar (μM) of DHA, oleic acid, or palmitic acid. Cells were then labeled for 2.5 hr with 0.5 microcurie (μCi)/ml ^14C-choline in serum-free DMEM containing 10-micromolar (μM) choline.
as §1, with “To each sample was added 0.5 ml of 4.5% HclO4/27% H2SO4 and tubes were heated at 180° C. for 3 h. After cooling to room temperature, 5 ml of the color reagent (a 10:1 dilution of solutions containing 2.5 mg/ml ammonium molybdate, 8.2 mg/ml sodium acetate and 100 mg/ml ascorbic acid respectively) was added and the tubes were incubated for 2 h, 37° C.” left out
In order to assess the effect of omega-3 fatty acids on phospholipid synthesis, PC-12 cells were incubated with ^14C-labeled choline, following an 18-hour pre-incubation with or without DHA. Incorporation of label into phospholipids was then measured. […]
To further characterize the stimulation of phospholipid synthesis by omega-3 fatty acids, PC-12 cells were pre-treated with different doses of DHA and exposed to labeled choline as described in Example 1, then incorporation of ^14C-label into phospholipids was measured. […]

[3] = tested on: brain phospholipid levels; experiment: Brain phospholipid levels in rat pups of treated pregnant and nursing mothers; format: in vivo; settings: rat pups, postnatal day 20, mean
Procedure: In another study, pregnant rats were allowed to consume ad libitum, for 10 days before parturition and 20 days while nursing, either a choline-containing control diet or this diet supplemented with uridine as UMP; half of each group also received DHA or its diluent daily, by gavage. Pups were then sacrificed and brain slices were examined to determine numbers of hippocampal dendritic spines.
Pregnant and nursing rats were administered DHA and/or uridine as described in Example 9. At 20 days post-birth, rats were sacrificed and brain samples were obtained and assayed for phospholipids. Administration of DHA alone increased brain PC, PI, PE, and sphingomyelin (SM) per cell (DNA) by 36, 166, 38, and 78%, respectively. UMP markedly amplified the effects of DHA to 66, 210, 68, and 99% of control, respectively (Table 8). These increases were greater than those observed in adult animals. Similar results were obtained when normalizing to protein (Table 9). Thus, administration of DHA and/or uridine to pregnant and nursing mothers is able to increase phospholipid levels in the offspring.

[4] = tested on: brain CDP-choline levels; experiment: Brain CDP-choline and CDP-ethanolamine levels in gerbils; format: in vivo, gerbil; settings: 28 days
Source text: FIGS. 5A and 5B. FIG. 5A illustrates the effect Effects of DHA on brain CDP-choline levels (FIG. 5A) and while FIG. 5B illustrates the effect of DHA on brain CDP-ethanolamine levels (FIG. 5B). Groups of 8 gerbils received either a control or a UMP-containing diet, and, by gavage, DHA (in a vehicle of 5% gum Arabic solution) or 5% gum Arabic solution alone for 28 days. On the 29th day brains were harvested and assayed for CDP-choline. Data are presented as means±SEM. Statistical analysis was performed using one- or two-way ANOVA followed by Tukey test. a: P<0.05 when compared with the values for control diet plus vehicle group; b: P<0.05 when compared with values for UMP diet plus vehicle group.
Aliquots (2 ml) of the upper (aqueous) phase were dried under a vacuum, reconstituted, and injected into an HPLC. The dried samples were reconstituted in 100-200 μl water and were analyzed by HPLC on an anion exchange column (Alltech Hypersil APS-2, […], 250×4.6 mm). CDP-choline was eluted with a linear gradient of buffers A (H3PO4, 1.75 mM, pH 2.9) and B (NaH2PO2, 500 mM, pH 4.5) from 0 to 100% B over period of 30 min. With this system, CDP-choline was resolved from closely co-eluting substances such as UMP in an isocratic system over a period of 40 min. The retention time for CDP-choline was 9.5 min. The column was washed with buffer B at the end of each experiment and every several days to remove retained nucleotides. Individual nucleotide peaks were detected by UV absorption at 280 nm and were identified by comparison with the positions of authentic standards, as well as by the addition of nucleotide standards to samples.
To determine the effect of PUFA administration on CDP-choline levels, brain CDP-choline levels were measured in the animals from the previous Example. Administration of DHA and/or UMP decreased CDP-choline levels (FIG. 5A) and CDP-ethanolamine levels (FIG. 5B). DHA reduced CDP-choline levels by 26% (compared with those receiving just the control diet and DHA's vehicle), and in UMP-treated gerbils by 21% (compared with those receiving UMP-containing diet and DHA's vehicle) (both P<0.05).

[5] = tested on: SHSY-5Y cells; experiment: 14C-choline incorporation into phospholipids in SHSY-5Y cells; format: cell-based, human; settings: for Phospholipid synthesis enhanced: 10 μM fatty acid, 18 hr, FIG. 3A
Procedure: SHSY-5Y cells were grown to near confluency in DMEM+10% FBS in 35 mm dishes. Cells were incubated for 18 hr in serum-free DMEM+1% FBS containing 30 μM choline+/−10 μM of DHA, arachidonic acid, or palmitic acid. Cells were then labeled, and labeled phospholipids were quantified as described for Example 1.
DHA was dissolved in ethanol to a […] concentration and frozen in 10 microliter aliquots at −80° C. For each experiment, one aliquot was diluted in ethanol to 10 micromolar; the volume giving the desired final solution in incubation medium was mixed with an equal volume of BSA solution (1 gm/ml).
The effect of omega-6 fatty acids on phospholipid synthesis was next examined in SHSY-5Y cells, a human neuroblastoma cell line. In this case, phospholipid synthesis was enhanced by arachidonic acid, an omega-6 fatty acid, but not by DHA or palmitic acid (FIG. 3A).
The effect of arachidonic acid on phospholipid synthesis in SHSY-5Y cells was further characterized as described for omega-3 fatty acids and PC-12 cells in Example 2.

[6] = Table 9, nmol per microgram DNA

CCC=CCC=CCC=CCC=CCC=CCCCC(=O)O [EPA, 5,8,11,14,17-eicosapentaenoic acid]
Brain phospholipid levels ([1]; 3 weeks): increased

CCCCCCCC/C=C\CCCCCCCC(=O)O [oleic acid, reference compound]
Phosphatidylcholine (PC) synthesis significantly increased (incorporation of 14C label into PC) [2]: not

O=c1ccn([C@@H]2O[C@H](COP(=O)(O)O)[C@@H](O)[C@H]2O)c(=O)[nH]1 [UMP, uridine monophosphate]
PC ([3]; Table 8, nmol per mg protein): 95.3 nmol/mg protein | PE ([3]; Table 8, nmol per mg protein): 75.6 nmol/mg protein | PI ([3]; Table 8, nmol per mg protein): 3.92 nmol/mg protein | SM ([3]; Table 8, nmol per mg protein): 5.27 nmol/mg protein | Total Phospholipids ([3]; Table 8, nmol per mg protein): 282.2 nmol/mg protein | PC [3, 6]: 8.11 nmol/microgram DNA | PE [3, 6]: 6.56 nmol/microgram DNA | PI [3, 6]: 0.352 nmol/microgram DNA | SM [3, 6]: 0.458 nmol/microgram DNA | Total Phospholipids [3, 6]: 24.78 nmol/microgram DNA | Effects on brain phospholipids after 1 week of treatment ([1]; 1 week): no significant effects | Increases in brain phospholipids ([1]; 3 weeks): smaller but still significant increases | Increase in levels of total phospholipids over control group ([1]; 4 weeks, gerbil brain): 5% | Total PtdCho ([1]; Table 5 part A): 171 ± 8 nmol/mg prt | Total PtdEtn ([1]; Table 5 part A): 84 ± 8 nmol/mg prt | Total PtdSer ([1]; Table 5 part A): 35 ± 3 nmol/mg prt | Total Ptdins ([1]; Table 5 part A): 31 ± 2 nmol/mg prt | Total PtdEtn ([1]; Table 5 part B, One Week): 63 ± 4 nmol/mg prt | Total PtdSer ([1]; Table 5 part B, One Week): 39 ± 1 nmol/mg prt | Total Ptdins ([1]; Table 5 part B, One Week): 20 ± 4 nmol/mg prt | Total PtdEtn ([1]; Table 5 part B, Three Weeks): 87 ± 4 nmol/mg prt | Total PtdSer ([1]; Table 5 part B, Three Weeks): 42 ± 2 nmol/mg prt | Total Ptdins ([1]; Table 5 part B, Three Weeks): 25 ± 1 nmol/mg prt | CDP-choline levels (FIG. 5A) [4]: decreased | CDP-ethanolamine levels (FIG. 5B) [4]: decreased

CCCCCCCCCCCCCCCC(=O)O [palmitic acid, reference compound]
Phospholipid synthesis enhanced [5]: not | Phosphatidylcholine (PC) synthesis significantly increased (incorporation of 14C label into PC) [2]: not

CCCCCC=CCC=CCC=CCC=CCCCC(=O)O [AA, 5,8,11,14-eicosatetraenoic acid]
Brain phospholipid levels ([1]; 3 weeks): increased | Phospholipid synthesis enhanced [5]: enhanced | Synthesis of total phospholipids, PC, and phosphatidylethanolamine ([5]; range of dosages, FIG. 3B): increased
